Reference: patent US4080381A, “Water soluble tertiary amine boranes” (Mine Safety Appliances Company, priority 1976, dated 1978)
Values after ≈ are worked out from the molar mass of the structure shown. One block for each compound: values may come before it.

Columns and labels:
[1] = water solubility of the amine boranes; type: physicochemical
Description: Two Hundred milliliters of distilled dimethylsulfide (DMS) and 122.5 g (523.5 mmol) of CH3 O(C2 H4 O)3 C2 H4 N(CH3)2 were added to a one liter three necked flask equipped with a magnetic stirring bar, a thermometer and a 250 ml pressure equalizing dropping funnel. 41.4 grams (523.5 mmol) of dimethylsulfide borane (DMSB) was added to the funnel. The DMSB was added dropwise over the next hour while maintaining the reaction vessel temperature between 7°-15° C with ice water cooling. After the reaction was complete, the DMS solvent was removed under vacuum.
(1) 62.0 g (530 mmol) of CH3 CH2 OC2 H4 N(CH3)2 and 41.7 g (530 mmol) of DMSB were reacted in the same manner as example 1.
33.7 g (229.2 mmol) of CH3 OC2 H4 OC2 H4 N(CH3)2 and 18.1 g (230 mmol) of DMSB were reacted in the same manner as example (1). The resulting liquid amine borane has an approximate water solubility of 200 g/l of solution.
113.2 g (1099 mmol) of CH3 OC2 H4 N(CH3)2 and 87.3 g (1099 mmol) DMSB were reacted in the same manner as example 1. […] Inert solvents, such as hydrocarbon or ether solvents, can be used partially or wholly in place of the DMS. Temperature, pressure and reaction proportions are not critical, although it is generally most convenient to use stoichimetric proportions at atmospheric pressure and room temperature or below.

[2] = electroless gold plating: reduction of gold salt solution on palladium chloride activated nickel plate; conditions: mixed with KAuCl4 solution, pH 12.5
Description: The amine boranes of this invention are useful as reducing agents in aqueous solutions. For example, solutions of gold salts are reduced by the water soluble amine boranes to plate gold on a catalytically active surface contacted with the solution, as is more fully described in the above referenced co pending application. To illustrate, the pH of one hundred ml of a 3.0 g/l solution of KAuCl4 was raised to 12.5 by the addition of NaOH. In a separate beaker, the pH of 100 ml of a 2.00g/l solution of CH3 OCH2 CH2 N(CH3)2 :BH3 was also raised to 12.5 by the addtion of NaOH. […] A palladium chloride activated substrate of nickel plate was immersed in the stirred bath for one hour at room temperature.

water solubility (in words) ([1]; in water): very soluble in water
SMILES: [BH3-][N+](C)(C)CCOCCOCCOCCOC [Example 1]

solubility in water ([1]; in water at 25° C): 17 mg/mL (≈ 130 mM)
SMILES: [BH3-][N+](C)(C)CCOCC [Example 2]

approximate water solubility ([1]; in water): ~200 g/l of solution
SMILES: [BH3-][N+](C)(C)CCOCCOC [Example 3]

appearance and stability of mixed plating solution [2]: clear and stable
limiting solubility in water ([1]; in water): 38 g/l of solution
SMILES: [BH3-][N+](C)(C)CCOC [Example 4]
